For experiment [1], the target named is T1, NEP (EC.3.4.24.11) from human kidney (Homo sapiens, UniProt P08473).
T1 construct: determined using NEP (EC.3.4.24.11) from human kidney; from tissue; host or cells: human kidney
Put plainly: IC50 against NEP. It counts as biochemical. How it is done: IC50 values of the compounds of the invention against NEP and ACE were determined using methods described in published patent application EP1097719-A1, paragraphs [0368] to [0376]. The IC50 values presented below were determined using NEP (EC.3.4.24.11) from human kidney.

The test system of experiment [2] is patients with essential hypertension. Conditions: 24 black patients with essential hypertension; cited from earlier work.
A further experiment has as its system hypertensive patients. Conditions: added to the ACE inhibitor lisinopril; 37 hypertensive patients; cited from earlier work.
The next experiment relates to hypertensive rats. Conditions: cited from earlier work.

This is an account of results in patent publication US7045653B2, “Pharmaceuticals” (Pfizer, Inc., priority 2003, dated 2006).

The IC50 is the concentration that gives 50% inhibition. A low value points to inhibition by little substance.

SMILES strings stand for the structures.

T1 sequence (P08473 whole entry): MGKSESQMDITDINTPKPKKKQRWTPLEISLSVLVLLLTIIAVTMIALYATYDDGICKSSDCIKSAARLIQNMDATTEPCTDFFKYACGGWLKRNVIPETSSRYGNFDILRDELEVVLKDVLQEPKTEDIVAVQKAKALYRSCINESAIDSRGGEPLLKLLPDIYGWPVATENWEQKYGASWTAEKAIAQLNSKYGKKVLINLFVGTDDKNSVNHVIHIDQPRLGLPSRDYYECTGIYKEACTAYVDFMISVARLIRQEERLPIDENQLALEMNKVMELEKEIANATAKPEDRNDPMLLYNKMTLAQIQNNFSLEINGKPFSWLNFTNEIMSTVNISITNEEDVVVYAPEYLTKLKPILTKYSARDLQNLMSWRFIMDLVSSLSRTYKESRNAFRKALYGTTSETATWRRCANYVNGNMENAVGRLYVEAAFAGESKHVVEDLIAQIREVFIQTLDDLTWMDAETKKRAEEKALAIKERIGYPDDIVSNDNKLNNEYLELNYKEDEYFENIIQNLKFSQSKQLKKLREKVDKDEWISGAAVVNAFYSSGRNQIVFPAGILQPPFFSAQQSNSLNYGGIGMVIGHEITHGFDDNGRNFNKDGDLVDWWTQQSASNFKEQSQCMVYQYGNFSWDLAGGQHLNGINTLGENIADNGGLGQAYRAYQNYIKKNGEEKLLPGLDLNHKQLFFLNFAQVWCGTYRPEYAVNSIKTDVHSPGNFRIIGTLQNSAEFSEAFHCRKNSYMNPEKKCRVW

As for `COCC[C@H](CC1(C(=O)N[C@@H](COCc2ccc(Cl)cc2)CC(=O)O)CCCC1)C(=O)O` [Example 16, (2S)-2-[(1-{[((1R)-2-Carboxy-1-{[(4-chlorobenzyl)oxy]methyl}ethyl)amino]-carbonyl}cyclopentyl)methyl]-4-methoxybutanoic Acid], in experiment [1], the IC50 is 8.2 nM.
Same read-out and setting: to `CCC[C@H](CC1(C(=O)N[C@@H](CCOc2ccc(Cl)cc2)CC(=O)O)CCCC1)C(=O)O` [Example 41, (3S)-3-[({1-[(2R)-2-Carboxypentyl]cyclopentyl}carbonyl)amino]-5-(4-chlorophenoxy)pentanoic Acid] belongs 6.3 nM; to `COCC[C@H](CC1(C(=O)N[C@@H](CCOc2ccc(Cl)cc2)CC(=O)O)CCCC1)C(=O)O` [Example 48, (3S)-3-[({1-[(2S)-2-Carboxy-4-methoxybutyl]cyclopentyl}carbonyl)amino]-5-(4-chlorophenoxy)pentanoic Acid], 2.4 nM; to `COCC[C@H](CC1(C(=O)N[C@@H](CCCc2ccc(Cl)cc2)CC(=O)O)CCCC1)C(=O)O` [Example 53, (3S)-3-[({1-[(2S)-2-carboxy-4-methoxybutyl]cyclopentyl}carbonyl)amino]-6-(4-chlorophenyl)hexanoic Acid], 0.7 nM.
The same measure, in the same setting: to `COCC[C@H](CC1(C(=O)N[C@@H](CCCc2ccc(OC)cc2)CC(=O)O)CCCC1)C(=O)O` [Example 54, (3S)-3-[({1-[(2S)-2-carboxy-4-methoxybutyl]cyclopentyl}carbonyl)amino]-6-(4-methoxyphenyl)hexanoic Acid] belongs 4.7 nM.
With `CC1(C)OCC(COC(=O)C(Cc2ccccc2)N[C@@H](Cc2ccccc2)C(=O)NCCC(=O)O)O1` (some centres unmarked) [SCH34826], the supine blood pressure entry in experiment [2] is on record as “significantly lowered supine blood pressure”.
Consider `COCCOC[C@H](CC1(C(=O)N[C@H]2CC[C@@H](C(=O)O)CC2)CCCC1)C(=O)Oc1ccc2c(c1)CCC2` [candoxatril], for which the “supine and erect blood pressure” value in the experiment on hypertensive patients was “marked reduction in both supine and erect blood pressure”.
`COCCOC[C@H](CC1(C(=O)N[C@H]2CC[C@@H](C(=O)O)CC2)CCCC1)C(=O)O` [candoxatrilat]: the systolic blood pressure entry with hypertensive rats is recorded as “lowers systolic blood pressure”.
